Read-outs that look alike come from different tables or passages of the source.
Biological target: T1, BCL6 (Homo sapiens, UniProt P41182)
T1 construct: endogenous in cells; host or cells: T47D breast cancer epithelial cells
Assay: Immunofluorescence protocol for high content imaging of BCL6 (degradation) in T47D cells, 3 days compound treatment
Format: cell-based
Conditions: for DC50: read-out: Mean DC50 (nM)* category; for Dmax: read-out: Mean Dmax (%)** category
Summary of the method: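 T47D, RPMI1640/10% FBS; cpd 11-pt 3-fold, top 0.1 or 1 μM final; 3 d, 37° C. Fix 4% PFA, perm 0.1% Triton, block 3% BSA; anti-BCL6 1:300 o/n 4° C; Alexa-488 2°, CellMask-647, Hoechst. Imaged 10×, 4 fields/well.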

[1] = T47D cells, 3 days compound treatment

SMILES: CNC(=O)COc1cc2cc(Nc3nc(N4CCC5(CCN(CC6(F)CCN(c7ccc(F)c8c7C(=O)N(C7CCC(=O)NC7=O)C8)CC6)CC5)CC4)ncc3Cl)ccc2n(C(C)C)c1=O (centres unmarked) [Compound 130, 2-{[6-({5-chloro-2-[9-({1-[2-(2,6-dioxopiperidin-3-yl)-7-fluoro-3-oxo-2,3-dihydro-1H-isoindol-4-yl]-4-fluoropiperidin-4-yl}methyl)-3,9-diazaspiro[5.5]undecan-3-yl]pyrimidin-4-yl}amino)-2-oxo-1-(propan-2-yl)-1,2-dihydroquinolin-3-yl]oxy}-N-methylacetamide]
- DC50 [1]: ≥ 100 nM
- Dmax [1]: ≥ 70%

SMILES: CNC(=O)COc1cc2cc(Nc3nc(N4CCC(O[C@H]5C[C@H](N6[C@H](C)CN(c7ccc8c(c7)C(=O)N(C7CCC(=O)NC7=O)C8=O)C[C@@H]6C)C5)CC4)ncc3Cl)ccc2n(C(C)C)c1=O (stereo partly drawn) [Compound 248, 2-[[6-[[5-chloro-2-[4-[3-[(2R,6S)-4-[2-(2,6-dioxo-3-piperidyl)-1,3-dioxo-isoindolin-5-yl]-2,6-dimethyl-piperazin-1-yl]cyclobutoxy]-1-piperidyl]pyrimidin-4-yl]amino]-1-isopropyl-2-oxo-3-quinolyl]oxy]-N-methyl-acetamide]
- Dmax (T47D): 50 to 70%
- DC50: < 10 nM

SMILES: CNC(=O)COc1cc2cc(Nc3nc(N4CCC(N5CCC56CN(C5CCN(c7ccc8c(c7)C(=O)N(C7CCC(=O)NC7=O)C8=O)C5)C6)CC4)ncc3Cl)ccc2n(C(C)C)c1=O (centres unmarked) [Compound 221, 2-{[6-({5-chloro-2-[4-(6-{1-[2-(2,6-dioxopiperidin-3-yl)-1,3-dioxo-2,3-dihydro-1H-isoindol-5-yl]pyrrolidin-3-yl}-1,6-diazaspiro[3.3]heptan-1-yl)piperidin-1-yl]pyrimidin-4-yl}amino)-2-oxo-1-(propan-2-yl)-1,2-dihydroquinolin-3-yl]oxy}-N-methylacetamide]
- Dmax (T47D): 50 to 70%
- DC50: < 10 nM

SMILES: CNC(=O)COc1cc2cc(Nc3nc(N4CCC(O[C@H]5C[C@H](N6CC7(CCN(c8ccc9c(c8)C(=O)N(C8CCC(=O)NC8=O)C9)CC7)C6)C5)CC4)ncc3Cl)ccc2n(C(C)C)c1=O (some centres unmarked) [Compound 377, 2-({6-[(5-chloro-2-{4-[(1r,3r)-3-{7-[2-(2,6-dioxopiperidin-3-yl)-3-oxo-2,3-dihydro-1H-isoindol-5-yl]-2,7-diazaspiro[3.5]nonan-2-yl}cyclobutoxy]piperidin-1-yl}pyrimidin-4-yl)amino]-2-oxo-1-(propan-2-yl)-1,2-dihydroquinolin-3-yl}oxy)-N-methylacetamide]
- Dmax (T47D): ≥ 70%
- DC50: 50 to 100 nM

SMILES: CNC(=O)COc1cc2cc(Nc3nc(N4CCC(CN5CC6(CCN(c7cc(F)c8c(c7)CN(C7CCC(=O)NC7=O)C8=O)CC6)C5)CC4)ncc3Cl)ccc2n(C(C)C)c1=O (centres unmarked) [Compound 86, 2-{[6-({5-chloro-2-[4-({7-[2-(2,6-dioxopiperidin-3-yl)-7-fluoro-1-oxo-2,3-dihydro-1H-isoindol-5-yl]-2,7-diazaspiro[3.5]nonan-2-yl}methyl)piperidin-1-yl]pyrimidin-4-yl}amino)-2-oxo-1-(propan-2-yl)-1,2-dihydroquinolin-3-yl]oxy}-N-methylacetamide]
- DC50 [1]: < 10 nM
- Dmax [1]: 50 to 70%

SMILES: CNC(=O)COc1cc2cc(Nc3nc(N4CCC(O[C@H]5C[C@H](N6CC7(CCN(c8ccc9c(c8C)C(=O)N(C8CCC(=O)NC8=O)C9=O)CC7)C6)C5)CC4)ncc3Cl)ccc2n(C(C)C)c1=O (some centres unmarked) [Compound 418, 2-({6-[(5-chloro-2-{4-[(1r,3r)-3-{7-[2-(2,6-dioxopiperidin-3-yl)-4-methyl-1,3-dioxo-2,3-dihydro-1H-isoindol-5-yl]-2,7-diazaspiro[3.5]nonan-2-yl}cyclobutoxy]piperidin-1-yl}pyrimidin-4-yl)amino]-2-oxo-1-(propan-2-yl)-1,2-dihydroquinolin-3-yl}oxy)-N-methylacetamide]
- Dmax (T47D): ≥ 70%
- DC50: < 10 nM

SMILES: CNC(=O)COc1cc2cc(Nc3nc(N4CCC(O[C@H]5C[C@H](N6C7CCC6CN(c6ccc8c(c6)C(=O)N(C6CCC(=O)NC6=O)C8=O)C7)C5)CC4)ncc3Cl)ccc2n(C(C)C)c1=O (some centres unmarked) [Compound 372, 2-({6-[(5-chloro-2-{4-[(1r,3r)-3-{3-[2-(2,6-dioxopiperidin-3-yl)-1,3-dioxo-2,3-dihydro-1H-isoindol-5-yl]-3,8-diazabicyclo[3.2.1]octan-8-yl}cyclobutoxy]piperidin-1-yl}pyrimidin-4-yl)amino]-2-oxo-1-(propan-2-yl)-1,2-dihydroquinolin-3-yl}oxy)-N-methylacetamide]
- Dmax (T47D): 50 to 70%
- DC50: < 10 nM

SMILES: CNC(=O)COc1cc2cc(Nc3nc(N4CCC(O[C@H]5C[C@H](N6CCC7(CN(c8ccc9c(c8)C(=O)N(C8CCC(=O)NC8=O)C9)C7)C6)C5)CC4)ncc3Cl)ccc2n(C(C)C)c1=O (some centres unmarked) [Compound 345, 2-({6-[(5-chloro-2-{4-[(1r,3r)-3-{2-[2-(2,6-dioxopiperidin-3-yl)-3-oxo-2,3-dihydro-1H-isoindol-5-yl]-2,6-diazaspiro [3.4]octan-6-yl}cyclobutoxy]piperidin-1-yl}pyrimidin-4-yl)amino]-2-oxo-1-(propan-2-yl)-1,2-dihydroquinolin-3-yl}oxy)-N-methylacetamide]
- Dmax (T47D): ≥ 70%
- DC50: < 10 nM

SMILES: CNC(=O)COc1cc2cc(Nc3nc(N4CCCCC4)ncc3Cl)ccc2n(CCOc2ccc3c(c2)C(=O)N(C2CCC(=O)NC2=O)C3=O)c1=O (centres unmarked) [Compound 29, 2-[(6-{[5-chloro-2-(piperidin-1-yl)pyrimidin-4-yl]amino}-1-(2-{[2-(2,6-dioxopiperidin-3-yl)-1,3-dioxo-2,3-dihydro-1H-isoindol-5-yl]oxy}ethyl)-2-oxo-1,2-dihydroquinolin-3-yl)oxy]-N-methylacetamide]
- DC50 [1]: 10 to 50 nM
- Dmax [1]: 50 to 70%

SMILES: CNC(=O)COc1cc2cc(Nc3nc(N4CCN(CC5CCC6(CC5)CN(c5ccc(F)c7c5CN(C5CCC(=O)NC5=O)C7=O)C6)CC4)ncc3Cl)ccc2n(C(C)C)c1=O (centres unmarked) [Compound 316, 2-{[6-({5-chloro-2-[4-({2-[2-(2,6-dioxopiperidin-3-yl)-7-fluoro-1-oxo-2,3-dihydro-1H-isoindol-4-yl]-2-azaspiro[3.5]nonan-7-yl}methyl)piperazin-1-yl]pyrimidin-4-yl}amino)-2-oxo-1-(propan-2-yl)-1,2-dihydroquinolin-3-yl]oxy}-N-methylacetamide]
- Dmax (T47D): 50 to 70%
- DC50: < 10 nM

SMILES: CNC(=O)COc1cc2cc(Nc3nc(N4CCC(OC5CCC(N6CCC(c7cccc8c7C(=O)N(C7CCC(=O)NC7=O)C8=O)CC6)C5)CC4)ncc3Cl)ccc2n(C(C)C)c1=O (centres unmarked) [Compound 148, 2-({6-[(5-chloro-2-{4-[(3-{4-[2-(2,6-dioxopiperidin-3-yl)-1,3-dioxo-2,3-dihydro-1H-isoindol-4-yl]piperidin-1-yl}cyclopentyl)oxy]piperidin-1-yl}pyrimidin-4-yl)amino]-2-oxo-1-(propan-2-yl)-1,2-dihydroquinolin-3-yl}oxy)-N-methylacetamide]
- DC50 [1]: 50 to 100 nM
- Dmax [1]: < 50%

SMILES: CNC(=O)COc1cc2cc(Nc3nc(N4CCC(CN5CCC6(CCN(c7cc(F)cc8c7C(=O)N(C7CCC(=O)NC7=O)C8=O)C6)C5)CC4)ncc3Cl)ccc2n(C(C)C)c1=O (centres unmarked) [Compound 138, 2-{[6-({5-chloro-2-[4-({7-[2-(2,6-dioxopiperidin-3-yl)-6-fluoro-1,3-dioxo-2,3-dihydro-1H-isoindol-4-yl]-2,7-diazaspiro[4.4]nonan-2-yl}methyl)piperidin-1-yl]pyrimidin-4-yl}amino)-2-oxo-1-(propan-2-yl)-1,2-dihydroquinolin-3-yl]oxy}-N-methylacetamide]
- DC50 [1]: < 10 nM
- Dmax [1]: 50 to 70%

SMILES: CNC(=O)COc1cc2cc(Nc3nc(N4CCC(O[C@H]5C[C@H](N6[C@H](C)CN(c7ccc8c(c7)CN(C7CCC(=O)NC7=O)C8=O)C[C@H]6C)C5)CC4)ncc3Cl)ccc2n(C(C)C)c1=O (stereo partly drawn) [Compound 250, 2-({6-[(5-chloro-2-{4-[(1r,3r)-3-[(2R,6R)-4-[2-(2,6-dioxopiperidin-3-yl)-1-oxo-2,3-dihydro-1H-isoindol-5-yl]-2,6-dimethylpiperazin-1-yl]cyclobutoxy]piperidin-1-yl}pyrimidin-4-yl)amino]-2-oxo-1-(propan-2-yl)-1,2-dihydroquinolin-3-yl}oxy)-N-methylacetamide]
- Dmax (T47D): 50 to 70%
- DC50: < 10 nM

SMILES: CNC(=O)COc1cc2c(F)c(Nc3nc(N4CCC(O[C@H]5C[C@H](N6CCN(c7ccc8c(c7C)C(=O)N(C7CCC(=O)NC7=O)C8=O)CC6)C5)CC4)ncc3Cl)ccc2n(C(C)C)c1=O (some centres unmarked) [Compound 195]
- DC50 [1]: < 10 nM
- Dmax [1]: ≥ 70%

SMILES: CNC(=O)COc1cc2c(F)c(Nc3nc(N4CCC(F)(CN5CCC6(CC5)CN(c5ccc7c(c5)CN(C5CCC(=O)NC5=O)C7=O)C6)CC4)ncc3Cl)ccc2n(C(C)C)c1=O (centres unmarked) [Compound 389, 2-{[6-({5-chloro-2-[4-({2-[2-(2,6-dioxopiperidin-3-yl)-1-oxo-2,3-dihydro-1H-isoindol-5-yl]-2,7-diazaspiro[3.5]nonan-7-yl}methyl)-4-fluoropiperidin-1-yl]pyrimidin-4-yl}amino)-5-fluoro-2-oxo-1-(propan-2-yl)-1,2-dihydroquinolin-3-yl]oxy}-N-methylacetamide]
- Dmax (T47D): ≥ 70%
- DC50: < 10 nM

SMILES: CNC(=O)COc1cc2cc(Nc3nc(N4CCC(CN5CCC6(CC5)CCN6c5cccc6c5CN(C5CCC(=O)NC5=O)C6=O)CC4)ncc3Cl)ccc2n(C(C)C)c1=O (centres unmarked) [Compound 334, 2-{[6-({5-chloro-2-[4-({1-[2-(2,6-dioxopiperidin-3-yl)-1-oxo-2,3-dihydro-1H-isoindol-4-yl]-1,7-diazaspiro[3.5]nonan-7-yl}methyl)piperidin-1-yl]pyrimidin-4-yl}amino)-2-oxo-1-(propan-2-yl)-1,2-dihydroquinolin-3-yl]oxy}-N-methylacetamide]
- Dmax (T47D): 50 to 70%
- DC50: < 10 nM

Source: patent publication US11986532B2 (Arvinas Operations, Inc., priority 2021, dated 2024)
